Assays:
dental plaque = details: second-generation anti-plaque agent; cited from earlier work
[1] = tested on: dental plaque (biofilm) grown from fresh human saliva; assay: Inhibition of biofilm formation on rough glass rods (biofilm dry weight); assay type: cell-based; details: for Average biofilm weight: biofilm grown 3 days on rough glass rods in human saliva, dry weight; for Biofilm inhibitory effect of the individual component alone compared to the control (in words): individual component without its partner, FIG. 2
Method: The aqueous solutions of sodium lauroyl sarcosinate, biosurfactant rhamnolipid and the mixture thereof at various concentrations were tested for inhibition of biofilm formation on the surface of rough glass rods. The test sample of the raw material contained sodium lauroyl sarcosinate at the level of 35%. The test sample of the raw material contained rhamnolipid at the level of 40%. Sterile water was used as a negative control, and the mouthwash Corsodyl, containing 0.2% chlorhexidine was used as a positive control. Dry biofilm mass was weighted to determine the amount of formed dental plaque. The dental plaque was grown for 3 days by immersion of rough glass rods into the fresh human saliva containing 0.1% saccharose. […] On Day 1 one treatment of the glass rods with the test component solutions, and on Days 2 and 3 two treatments of the glass rods with the test component solutions were made. At the end of Day 3 the biofilm was collected from the glass rods, and the plaque amount by dry weight (g) was determined. Lesser weight indicated higher efficacy against the dental plaque. Sterilized rods were fixed in the holders in the microbiological cabinet. Since that moment the rods and the holders were used as the integral units. On Day 1 the sterile glass rods were pre-treated for 2 minutes with the test component solutions taken in the amount of 5 mL. Then the glass rods were removed, washed in 5 mL of the sterile distilled water and immersed into 5 mL of saliva containing 0.1% saccharose. The tubes were placed into the rack and then into the incubator (t=37° C.) and on shaker (250 rpm) for about 18 hours. On Days 2 and 3 in the morning the rods were treated with the test component solutions, then placed into nutritive broth and returned into the incubator and on shaker. After 6 h incubation in the broth the rods were treated with the test component solution once again and transferred into the saliva with 0.1% glucose, and then returned into the incubator for 18 hours. On Day 4 the tubes with the rods were removed from the incubator and used for determination of the biofilm dry weight. For this purpose, the rods were dried and then weighted on analytical balance with the accuracy of 4 decimal places. The biofilm was removed after the rehydration, and the rods were weighted once again. The biofilm dry weight was determined from the equation: [formula]

Compound	Removal of dental plaque (dental plaque)	Average biofilm weight ([1]; aqueous solution 0.01%)	Biofilm inhibitory effect of the individual component alone compared to the control (in words) [1]	Dose dependence of dental plaque weight (in words) ([1]; 0.2 and 2% aqueous solutions, 10-fold increase in concentration)	Average biofilm weight ([1]; aqueous solution 0.2%)	Average biofilm weight ([1]; aqueous solution 2%)
[H]/N=C(\N/C(=N/[H])NCCCCCCNC(=N)NC(=N)Nc1ccc(Cl)cc1)Nc1ccc(Cl)cc1 [chlorohexidine]	70-90%					
rhamnolipid [Biosurfactant rhamnolipid]		0.0026 g	do not provide for any biofilm inhibitory effect compared to the control			
sodium lauroyl sarcosinate			do not provide for any biofilm inhibitory effect compared to the control	absence of obvious dose-dependent effect	0.0022 g	0.0020 g
